Data set [1] concerns Mycobacterium tuberculosis. As to the kind of experiment: Antimycobacterial activity against multidrug (INH and RIF)-resistant Mycobacterium tuberculosis clinical isolate 1 assessed as inhibition of bacterial growth incubated for 7 days by rapid direct susceptibility test technique. The data set is classed as functional. Conditions: 168 h.
Data set [2] concerns Mycobacterium tuberculosis. The data set is described as follows: Antimycobacterial activity against multidrug (ethambutol, INH and RIF)-resistant Mycobacterium tuberculosis clinical isolate 2 assessed as inhibition of bacterial growth incubated for 7 days by rapid direct susceptibility test technique. To be noted: 168 h. The data set is classed as functional.
Data set [3] can be described thus: Selectivity index, ratio of CC50 for CHO cells to MIC for multidrug (INH and RIF)-resistant Mycobacterium tuberculosis clinical isolate 1. The data set is classed as toxicity. Conditions: hamster, read-out: Selectivity Index.
In data set [4] the test system is Mycobacterium tuberculosis. The data set is described as follows: Potency index, ratio of ciprofloxacin MIC to compound MIC for multidrug (INH and RIF)-resistant Mycobacterium tuberculosis clinical isolate 1 incubated for 7 days by rapid direct susceptibility test technique. The data set is classed as functional.
Data set [5] concerns Mycobacterium tuberculosis. As to the kind of experiment: Potency index, ratio of ciprofloxacin MIC to compound MIC for multidrug (ethambutol, INH and RIF)-resistant Mycobacterium tuberculosis clinical isolate 2 incubated for 7 days by rapid direct susceptibility test technique. The data set is classed as functional.
Data set [6] has as its system Mycobacterium tuberculosis. The data set is described as follows: Potency index, ratio of isoniazid MIC to compound MIC for multidrug (INH and RIF)-resistant Mycobacterium tuberculosis clinical isolate 1 incubated for 7 days by rapid direct susceptibility test technique. The data set is classed as functional.
Data set [7] has as its system Mycobacterium tuberculosis. As to the kind of experiment: Potency index, ratio of isoniazid MIC to compound MIC for multidrug (ethambutol, INH and RIF)-resistant Mycobacterium tuberculosis clinical isolate 2 incubated for 7 days by rapid direct susceptibility test technique. The data set is classed as functional.
The subject of data set [8] is Mycobacterium tuberculosis. The data set is described as follows: Potency index, ratio of rifampicin MIC to compound MIC for multidrug (INH and RIF)-resistant Mycobacterium tuberculosis clinical isolate 1 incubated for 7 days by rapid direct susceptibility test technique. The data set is classed as functional.
In data set [9] the test system is Mycobacterium tuberculosis. As to the kind of experiment: Potency index, ratio of rifampicin MIC to compound MIC for multidrug (ethambutol, INH and RIF)-resistant Mycobacterium tuberculosis clinical isolate 2 incubated for 7 days by rapid direct susceptibility test technique. The data set is classed as functional.

In brackets after ≈: the same amount, converted by molar mass.

Regarding `CCOC(=O)c1c(-c2ccccc2)oc2ccc(OCCCN3C(=O)/C(=N/O)c4ccccc43)cc12`, the results for the MIC in [1] and in data set [2] were 8 µg/mL (≈ 16.5 µM) and 16 µg/mL (≈ 33 µM), respectively. Also, the selectivity ratio in data set [3] was determined as 64.
In the same order, the values of `CCOC(=O)c1c(-c2ccc(F)cc2)oc2ccc(OCCCCCCN3C(=O)/C(=N/OC)c4ccccc43)cc12` are 0.5 µg/mL (≈ 0.895 µM), 0.25 µg/mL (≈ 0.448 µM) and 258.
`CNC(=O)c1c(-c2ccc(O)cc2)oc2ccc(O)c(CN3CCCCC3)c12`: the minimal inhibitory concentration (MIC) in [1] and in [2] was below 0.06 µg/mL throughout. For the same compound, the selectivity ratio in data set [3] was above 16400.
With `CCOC(=O)c1c(-c2ccc(F)cc2)oc2ccc(OCCCN3C(=O)/C(=N/O)c4ccccc43)cc12`, the MIC in data set [1] turned out to be 8 µg/mL (≈ 15.9 µM); in data set [2], 4 µg/mL (≈ 7.96 µM). Also, the selectivity ratio in [3] was 32.
`CCOC(=O)c1c(-c2ccccc2)oc2ccc(OCCCN3C(=O)C(=O)c4cc(OC)ccc43)cc12`: the MIC came out at 8 µg/mL (≈ 16 µM) in data set [1] and 16 µg/mL (≈ 32 µM) in [2]. In data set [3], the selectivity ratio worked out at 64.
Take `CCOC(=O)c1c(-c2ccc(OC)cc2)oc2ccc(OCCCN3C(=O)C(=O)c4cc(F)ccc43)cc12`: the MIC in data set [1] and in data set [2] was 2 µg/mL (≈ 3.86 µM) in each case. Also, the selectivity ratio in data set [3] was 32.
`CCOC(=O)c1c(-c2ccc(F)cc2)oc2ccc(OCCCCCCN3C(=O)C(=O)c4cc(OC)ccc43)cc12`: the MIC in [1] and in [2] was 2 µg/mL (≈ 3.57 µM) in each case. The selectivity ratio in data set [3] was 128.
For `CCOC(=O)c1c(-c2ccccc2)oc2ccc(OCCCN3C(=O)/C(=N/O)c4cc(OC)ccc43)cc12`, the minimal inhibitory concentration (MIC) in data set [1] and in [2] was 16 µg/mL (≈ 31.1 µM) in each case. Also, the selectivity ratio in data set [3] came to 32.
Turning to `CCOC(=O)c1c(-c2ccc(F)cc2)oc2ccc(OCCCN3C(=O)C(=O)c4ccccc43)cc12`, the MIC in [1] was found to be 1 µg/mL (≈ 2.05 µM); in data set [2] it was 2 µg/mL (≈ 4.1 µM). Also, the selectivity ratio in [3] amounted to 256.
Regarding `CCOC(=O)c1c(-c2ccc(F)cc2)oc2ccc(OCCCCCCN3C(=O)/C(=N\O)c4cc(OC)ccc43)cc12`, the MIC in data set [1] was found to be 4 µg/mL (≈ 6.96 µM); in data set [2], 1 µg/mL (≈ 1.74 µM). In addition, in data set [3], the selectivity ratio was 128.
In the case of `CCOC(=O)c1c(-c2ccc(OC)cc2)oc2ccc(OCCCCCCN3C(=O)/C(=N/NC(N)=S)c4cc(F)ccc43)cc12`, the MIC turned out to be 0.125 µg/mL (≈ 0.198 µM) in data set [1] and 0.25 µg/mL (≈ 0.395 µM) in data set [2]. The selectivity ratio in data set [3] amounted to 1024. For the same compound, the Ratio in data set [4] is reported as 8 - 16; in data set [5], 8 - 16; in data set [6], “>=512”; in data set [7], “>=512”; in data set [8], “>=512”; in [9], “>=512”.
Regarding `CCO/N=C1\C(=O)N(CCCCCCOc2ccc3oc(-c4ccc(F)cc4)c(C(=O)OCC)c3c2)c2ccc(OC)cc21`, the MIC was 2 µg/mL (≈ 3.32 µM) in [1] and 1 µg/mL (≈ 1.66 µM) in data set [2]. In data set [3], the selectivity ratio was 128.
On to `CCOC(=O)c1c(-c2ccc(F)cc2)oc2ccc(OCCN3C(=O)C(=O)c4cc(OC)ccc43)cc12`, for which the MIC in [1] is 8 µg/mL (≈ 15.9 µM); in data set [2] it was 4 µg/mL (≈ 7.94 µM). Further, the selectivity ratio in [3] is 64.
In the case of `CCOC(=O)c1c(-c2ccccc2)oc2ccc(OCCN3C(=O)C(=O)c4cc(F)ccc43)cc12`, the figures for the MIC in data set [1] and in data set [2] were 4 µg/mL (≈ 8.45 µM) and 2 µg/mL (≈ 4.22 µM), respectively. Besides, in data set [3], the selectivity ratio was 16.
In the same order, the values of `CCOC(=O)c1c(-c2ccccc2)oc2ccc(OCCCCCCN3C(=O)C(=O)c4ccccc43)cc12` are 1 µg/mL (≈ 1.95 µM), 2 µg/mL (≈ 3.91 µM) and 128.
Take `CCOC(=O)c1c(-c2ccc(OC)cc2)oc2ccc(OCCCCN3C(=O)C(=O)c4ccccc43)cc12`: the MIC was 2 µg/mL (≈ 3.89 µM) in [1] and 4 µg/mL (≈ 7.79 µM) in data set [2]. Moreover, the selectivity ratio in data set [3] was 128.
On to `CCOC(=O)c1c(-c2ccc(OC)cc2)oc2ccc(OCCCCCN3C(=O)C(=O)c4ccccc43)cc12`, for which the figures for the MIC in [1] and in data set [2] were 2 µg/mL (≈ 3.79 µM) and 1 µg/mL (≈ 1.9 µM), respectively. For the same compound, the selectivity ratio in data set [3] was 64.
In the case of `CCOC(=O)c1c(-c2ccc(F)cc2)oc2ccc(OCCN3C(=O)C(=O)c4ccccc43)cc12`, the MIC in data set [1] and in data set [2] was 4 µg/mL (≈ 8.45 µM) in each case. The selectivity ratio in data set [3] was 32.
In the case of `CCOC(=O)c1c(-c2ccccc2)oc2ccc(OCCCN3C(=O)C(=O)c4ccccc43)cc12`, the MIC in data set [1] was 4 µg/mL (≈ 8.52 µM); in data set [2], 8 µg/mL (≈ 17 µM). For the same compound, the selectivity ratio in data set [3] worked out at 63.
`CCOC(=O)c1c(-c2ccc(F)cc2)oc2ccc(OCCN3C(=O)C(=O)c4cc(F)ccc43)cc12`: the MIC in [1] and in data set [2] was 2 µg/mL (≈ 4.07 µM) throughout. The selectivity ratio in data set [3] amounted to 32.
`NNC(=O)c1ccncc1` [ISONIAZID]: the MIC in data set [1] and in [2] was above 128 µg/mL in each case. Moreover, in data set [3], the selectivity ratio was below 2.
With `CO[C@H]1/C=C/O[C@@]2(C)Oc3c(C)c(O)c4c(O)c(c(/C=N/N5CCN(C)CC5)c(O)c4c3C2=O)NC(=O)/C(C)=C\C=C\[C@H](C)[C@H](O)[C@@H](C)[C@@H](O)[C@@H](C)[C@H](OC(C)=O)[C@@H]1C` [RIFAMPIN], the MIC in data set [1] was 64 µg/mL (≈ 77.8 µM); in [2], above 128 µg/mL. Also, the selectivity ratio in [3] turned out to be 8.

The values above are taken from ChEMBL document CHEMBL4311962, “Benzofuran-isatin hybrids and their in vitro anti-mycobacterial activities against multi-drug resistant Mycobacterium tuberculosis” (Eur J Med Chem, 2019).
